Reference: patent US10406238B2, “Ligand ionophore conjugates” (PURDUE RESEARCH FOUNDATION, priority 2015, dated 2019)

Legend:
folate receptor = molecular target: T1, folate receptor (Homo sapiens, UniProt P15328); test: Binding affinity to folate receptors in KB cells
T1 construct: endogenous in cells; host or cells: KB cells (human; maintained at Purdue Cancer Cell Culture Facility)

FRβ-expressing RAW cells = test: Endosomal escape in FRβ-expressing RAW cells (confocal); type: cell-based
KB cells [1] = test: Confocal microscopy for endosomal release in KB cells; type: cell-based, human
folate receptors = details: read-out: binding affinity Kd; cited from earlier work
KB cells [2] = system: KB cells
KB cells [3] = test: cells; details: Homo sapiens, read-out: IC50 concentration, growth of KB cells

T1 sequence (P15328 25-234): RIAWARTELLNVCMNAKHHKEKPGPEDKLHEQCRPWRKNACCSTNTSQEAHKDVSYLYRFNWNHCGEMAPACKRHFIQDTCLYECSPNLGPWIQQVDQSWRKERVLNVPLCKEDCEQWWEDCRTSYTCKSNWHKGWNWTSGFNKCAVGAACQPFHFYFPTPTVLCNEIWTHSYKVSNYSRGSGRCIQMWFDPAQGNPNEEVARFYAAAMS

## CO[C@@H]1C[C@@H](C[C@H]2CC[C@H](C)C([C@@H](C)C(=O)O)O2)O[C@]2(O[C@@](C)(C3CC[C@@](C)([C@@H]4O[C@@H]([C@@H]5O[C@@](O)(COC(=O)NCCSSC[C@H](NC(=O)[C@H](CC(=O)O)NC(=O)[C@H](CC(=O)O)NC(=O)[C@H](CCCNC(=N)N)NC(=O)[C@H](CC(=O)O)NC(=O)CC[C@H](NC(=O)c6ccc(NCc7cnc8nc(N)[nH]c(=O)c8n7)cc6)C(=O)O)C(=O)O)[C@H](C)C[C@@H]5C)C[C@@H]4C)O3)C[C@H]2C)[C@@H]1C (some centres unmarked) [conjugate 5]
Folate receptor
  binding affinity to folate receptors compared to folate-rhodamine compound 2: three times lower

## CCN(CC)c1ccc2c(-c3ccc(S(=O)(=O)NCCSSC[C@H](CC(=O)O)NC(=O)[C@H](CCCCN)NC(=O)[C@H](CC(=O)O)NC(=O)CC[C@H](NC(=O)c4ccc(NCc5cnc6nc(N)[nH]c(=O)c6n5)cc4)C(=O)O)cc3S(=O)(=O)[O-])c3ccc(=[N+](CC)CC)cc-3oc2c1 [compound 2, reference compound]
FRβ-expressing RAW cells; 10 nM FR, by 2 h, with or without folate-nigericin conjugate 1
  accumulation of dye inside the endosomes: significant accumulation

## CO[C@@H]1C[C@@H](C[C@H]2CC[C@H](C)C([C@@H](C)C(=O)OCCSSC[C@H](NC(=O)[C@H](CC(=O)O)NC(=O)[C@H](CC(=O)O)NC(=O)[C@H](CCCNC(=N)N)NC(=O)[C@H](CC(=O)O)NC(=O)CC[C@H](NC(=O)c3ccc(NCc4cnc5nc(N)[nH]c(=O)c5n4)cc3)C(=O)O)C(=O)O)O2)O[C@]2(O[C@@](C)(C3CC[C@@](C)([C@@H]4O[C@@H]([C@@H]5O[C@@](O)(CO)[C@H](C)C[C@@H]5C)C[C@@H]4C)O3)C[C@H]2C)[C@@H]1C (some centres unmarked) [conjugate 1]
Folate receptor
  binding affinity to folate receptors compared to folate-rhodamine compound 2: 5 times lower
FRβ-expressing RAW cells; 100 nM FN with 10 nM FR, FIG. 9
  endosome size versus cells not treated with conjugate: somewhat larger
KB cells [1]
  effective concentration for co-incubation: 200 nM
  endosomal release of the rhodamine dye: lower
  release of rhodamine dye from the endosome: considerable release
  time of high release of rhodamine dye from endosomes: 1 to 3 h

## Nc1nc2ncc(CNc3ccc(C(=O)N[C@@H](CCC(=O)O)C(=O)O)cc3)nc2c(=O)[nH]1 [Folic acid]
Folate receptors
  Kd: 0.0001 µM

## CO[C@@H]1C[C@@H](C[C@H]2CC[C@H](C)[C@H]([C@@H](C)C(=O)O)O2)O[C@]2(O[C@](C)([C@H]3CC[C@@](C)([C@@H]4O[C@@H]([C@H]5O[C@@](O)(CO)[C@H](C)C[C@@H]5C)C[C@@H]4C)O3)C[C@H]2C)[C@@H]1C [nigericin]
KB cells [2]
  toxicity to the cells: not toxic
KB cells [3]
  IC50: 12 µM
